{"source": "patent US20140148368A1", "about": "“DRILLING FLUIDS AND DRILLING FLUID ADDITIVES FOR TREATMENT OF BITUMEN IN WELLBORE CUTTINGS” (Marquis Alliance Energy Group Inc., priority 2012, published 2014)", "experiment": "Test Program #1: solubility of dodecanedioic acid powder in bitumen wafer", "assay_type": "physicochemical", "details": "ambient temperature, 3 days", "description": "The solubility of dodecanedioic acid powder in bitumen was proven in laboratory experiments in which a 30-gram bitumen core sample was compressed at 1,000 pounds per square inch using a compactor, to make bitumen wafers having a diameter of 2.75 cm and a depth (thickness) of 1.8 cm. The bitumen wafer was rolled over carefully in a container with a sufficient quantity of dodecanedioic acid powder. The surface of bitumen wafer was covered with a thin layer of the dodecanedioic acid powder, and the color of the bitumen turned from black to white."}
{"smiles": "O=C(O)CCCCCCCCCCC(=O)O", "note": "[dodecanedioic acid]", "values": [{"measurement": "solubility of powder in bitumen (visual inspection of powder-covered wafer)", "value": "all of the white dodecanedioic acid powder had disappeared"}]}
